Experimental data as given in paper PMC8782923, “A Klotho-derived peptide protects against kidney fibrosis by targeting TGF-β signaling” (Nature Communications, 2022).
Values joined by “and” are separate entries in the source; they are usually repeats but may differ in a detail not shown here. Equal entries are not always repeated.

Tests used:
[1] = test system: Smad2/3 phosphorylation in NRK-49F cells; assay: TGF-β1-induced Smad2/3 phosphorylation in NRK-49F cells (Western blot); type: cell-based, rat; conditions: KP1 10 µg/ml (3 μM) or ITD-1 3 μM 1 h, TGF-β1 2 ng/ml 45 min, individual values, n = 3, P <0.001, 0.008 and <0.001, Fig. 3m
Procedure: (§1) Normal rat kidney interstitial fibroblasts (NRK-49F) and human proximal tubular epithelial cells (HKC-8) were cultured at 37 °C. NRK-49F cells were serum-starved for 24 h and were pretreated with KP1 (10 µg/ml, 3 µM) for 1 h prior to incubation with TGF-β1 (#240-B; R&D Systems) at 2 ng/ml. Cells were collected at 45 min or 24 h after TGF-β1 treatment, respectively. Whole-cell lysates were prepared and subjected to Western blot analyses. For some experiments, cells were transiently transfected with expression vector human secreted Klotho (sKlotho) that only contains KL1 domain[48], by using Lipofectamine 2000 reagent (Invitrogen, Grand Island, NY) prior to treatment with TGF-β1.
(§2) Western blot analysis was performed as previously described. […] Image J (v1.8.0) was used to quantify Western blot results.

[2] = test system: ERK1/2, JNK and p38 phosphorylation in NRK-49F cells; assay: TGF-β1-induced MAPK (ERK1/2, JNK, p38) phosphorylation in NRK-49F cells (Western blot); type: cell-based, rat; conditions: KP1 10 µg/ml (3 μM) or ITD-1 3 μM 1 h, TGF-β1 2 ng/ml 45 min, individual values, n = 3, P <0.001, <0.001 and <0.001, Fig. 3n
Procedure: as §1, §2

UUO mice = assay: KP1 versus ITD-1 in UUO mice: renal TGF-β signaling and fibrosis proteins (Western blot); type: in vivo, mouse; parameters: renal p-Smad2 (Western blot) / renal p-Smad3 (Western blot) / renal p-p38 (Western blot) / renal p-JNK (Western blot) / renal collagen I (Western blot) / renal fibronectin (Western blot) / renal α-SMA (Western blot): unit not given here; conditions: KP1 1 mg/kg (0.31 μM/kg) or ITD-1 0.31 μM/kg, individual animals
Procedure: (§3) Male BALB/c mice weighing 20–22 g were purchased from Beijing Vital River Laboratory Animal Technology Co. and housed in a standard environment which was characterized by 12 h light/dark cycle, 22–25 °C, and 40–60% humidity with free access to water and chow (catalog number: SWS9102). Mice have randomly divided into 3 groups: (i) sham controls; (ii) UIRI or UUO mice treated with vehicle; (iii) UIRI or UUO mice treated with KP1. A renal UIRI model was performed. Briefly, under general anesthesia, mice were made a midline abdominal incision, and the left kidney was clipped for 35 min by a vascular clamp. Mice were kept on the heating block at 37 °C during ischemia. The contralateral right kidney was removed on day 10 after ischemia–reperfusion. Mice were sacrificed 11 days after IRI. Blood and kidneys were collected for analysis. UUO model was established. Briefly, the left ureter of the lower pole of the kidney was obstructed by 3–0 surgical suture. KP1 peptide was dissolved in 0.01 M acetic acid and administrated intravenously via tail vein at concentration of 1 mg/day/kg (0.31 μM/day/kg) body weight for 6 days. For some experiments, ITD-1 (S6713, Selleck) was dissolved in PBS with 0.025% DMSO and 0.1% Tween 80 buffer and injected via tail vein at 0.31 μM/day/kg body weight. All animal studies were approved by the Laboratory Animal Ethics Committee of Nanfang Hospital, Southern Medical University.
Western blot analysis was performed as previously described. The primary antibodies used were as follows: anti-fibronectin (dilution 1:10000; F3648; Sigma), anti-α-SMA (dilution 1:1000; ab7817; Abcam), anti-collagen-1 (dilution 1:1000; BM4017; Boster), anti-p-Smad3 (dilution 1:1000; #9520), anti-p-Smad2 (dilution 1:1000; #3104s), anti-p-ERK (dilution 1:1000; #9101s), anti-p-p38 (dilution 1:1000; #9211s), anti-p-JNK (dilution 1:1000; #9251s), anti-Smad2/3 (dilution 1:1000; #8685s), anti-JNK (dilution 1:1000; #9252), anti-ERK (dilution 1:1000; #4695), anti-p38 (dilution 1:1000; #8690; Cell Signaling Technology), anti-Klotho (dilution 1:1000; AF1819; R&D System), anti-TβR2 (dilution 1:1000; sc-7791; Santa Cruz), anti-TGF-β1 (dilution 1:1000; ab92486; Abcam), anti-GAPDH (dilution 1:5000; LK9002L; Sungene, Tianjin), anti-FITC (dilution 1:1000; PA1-26793; Invitrogen), anti-F4/80 (dilution 1:1000; 14-4801-82, eBioscience). The integration of all blots images was performed on Adobe Photoshop CS6. Graphpad Prism 8 was used to get statistics figures. Image J (v1.8.0) was used to quantify Western blot results. […]
in vivo. UUO mice were treated with KP1 (1 mg/kg, 0.31 μM/kg) or ITD-1 (0.31 μM/kg). We stern blot analyses (a, b) and quantitative data of p-Smad2 (c), p-Smad3 (d), p-ERK1/2 (e), p-JNK (f) and p-p38 […]
n=6 biologically independent animals. (h-k) Western blot analyses (h) and quantitative data of fibronectin (i), α-SMA (j) and Collagen Ⅰ (k) are shown. P values (from left to right): 0.001, 0.627, […]
independent animals. Data are presented as mean values +/- SEM. Statistical significance was determined by one-way ANOVA followed by Dunnett’s T3 post hoc test.
(1 picture or pasted object on this page, not shown here)

[3] = target: T1, TGF-β receptor 2 (TβR2), recombinant (Homo sapiens, UniProt P37173); assay: SPR affinity measurement (Biacore T200); type: binding; conditions: 25 °C, 1:1 fit, KP1 0.78–25 μM, KP12 1.56–100 μM, representative of two independent experiments, read-out: ka
T1 construct: purchased Sino Biological Inc., Beijing, China 10358-H03H-B
T1 sequence (P37173 23-159 limits assumed): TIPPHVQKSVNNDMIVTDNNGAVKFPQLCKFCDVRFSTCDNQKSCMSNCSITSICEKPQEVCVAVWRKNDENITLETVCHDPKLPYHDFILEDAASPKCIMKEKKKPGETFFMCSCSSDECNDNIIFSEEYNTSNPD
Procedure: The SPR analyses were performed on a Biacore T200 apparatus (GE Healthcare, Uppsala Sweden) at 25 °C. Recombinant TGF-β receptor 2 protein (43.4 kDa, >95% as determined by SDS-PAGE) (10358-H03H-B; Sino Biological Inc., Beijing, China) diluted at 50 µg/ml in 10 mM acetate pH 4.0, was covalently immobilized on a CM5 sensor chip (GE Healthcare) using amine-coupling chemistry. Samples of KP1 (3.229 kDa, HPLC purity >95%) or KP12 (3.6 kDa, HPLC purity >95%) in PBS at various concentrations were injected at a flow rate of 60 μl/min. The injection time was set to 180 s, the dissociation time was set to 540 s, and 50 mM Gly-HCl (pH = 2.5) was used as the regeneration buffer. Data were fitted to a 1:1 binding model to obtain KD. All results presented were representative of double or triplicated injections in an interleaved manner. Two independent experiments were performed.

UIRI mice = assay: Blood calcium and phosphorus in UIRI mice; type: in vivo, mouse
Procedure: as §3

SMILES | p-Smad3 (quantitative Western blot), KP1 versus ITD-1 [1] | p-p38 (quantitative Western blot), KP1 versus ITD-1 [2] | renal collagen I (Western blot) (UUO mice; n = 6, P 0.001, 0.477, 0.001, Supplementary Fig. 5k) | renal fibronectin (Western blot) (UUO mice; n = 6, P 0.001, 0.627, <0.001, Supplementary Fig. 5i) | renal p-ERK1/2 (Western blot) (UUO mice; n = 6, P 0.004, 0.988, 0.002, Supplementary Fig. 5e) | renal α-SMA (Western blot) (UUO mice; n = 6, P 0.006, 0.497, 0.007, Supplementary Fig. 5j) | renal p-Smad3 (Western blot) (UUO mice; n = 6, P <0.001, 0.438, <0.001, Supplementary Fig. 5d) | renal p-JNK (Western blot) (UUO mice; n = 6, P <0.001, 0.758, <0.001, Supplementary Fig. 5f) | renal p-p38 (Western blot) (UUO mice; n = 6, P <0.001, 1.00, 0.001, Supplementary Fig. 5g) | renal p-Smad2 (Western blot) (UUO mice; n = 6, P <0.001, 1.00, <0.001, Supplementary Fig. 5c) | kon [3] | phosphorus (UIRI mice; UIRI mice + KP1, individual animals, n = 6, UIRI vs UIRI/KP1 P=0.220, Supplementary Table 2) | calcium (UIRI mice; UIRI mice + KP1, individual animals, n = 6, UIRI vs UIRI/KP1 P=0.798, Supplementary Table 2) | effect on blood phosphorus and calcium (in words) (UIRI mice; compared to the UIRI group)
CCOC(=O)C1=C(C)NC2=C(C(=O)CC(C)(C)C2)C1c1ccc(-c2ccccc2)cc1 (centres unmarked) [ITD-1] | 2.756 and 2.347 and 1.188 | 2.793 and 1.62 and 1.25 | 6.627 and 4.346 and 7.91 and 8.759 and 4.669 and 8.535 | 9.72 and 9.315 and 3.815 and 3.805 and 3.523 and 5.024 | 11.5729 and 8.005 and 9.67 and 4.8 and 3.482 and 4.512 | 10.3176 and 15.77 and 12.2484 and 11.8776 and 11.4615 and 9.704 | 6.279 and 6.866 and 5.7731 and 6.57 and 6.136 and 7.119 | 4.803 and 6.567 and 5.7 and 7.786 and 5.264 and 7.2 | 5.956 and 6.507 and 4.878 and 4.538 and 5.819 and 6.755 | 18.8987 and 13.9891 and 9.419 and 10.7729 and 8.909 and 13.9004 |  |  |  | 
CC(C)C[C@H](NC(=O)[C@H](Cc1ccccc1)NC(=O)CNC(=O)[C@H](CC(=O)O)NC(=O)[C@@H]1CCCN1C(=O)[C@H](Cc1ccccc1)NC(=O)[C@@H](NC(=O)CNC(=O)[C@H](CCC(N)=O)NC(=O)[C@@H](N)Cc1ccccc1)[C@@H](C)O)C(=O)N[C@@H](Cc1c[nH]c2ccccc12)C(=O)N[C@@H](C)C(=O)N[C@H](C(=O)NCC(=O)N[C@@H](CO)C(=O)N[C@@H](C)C(=O)N[C@@H](C)C(=O)N[C@@H](Cc1ccc(O)cc1)C(=O)N[C@@H](CCC(N)=O)C(=O)N[C@H](C(=O)N[C@@H](CCC(=O)O)C(=O)NCC(=O)NCC(=O)N[C@@H](Cc1c[nH]c2ccccc12)C(=O)N[C@@H](CCC(N)=O)C(=O)N[C@@H](CCC(N)=O)C(=O)N[C@@H](Cc1c[nH]cn1)C(=O)NCC(=O)N[C@@H](CCCCN)C(=O)NCC(=O)O)[C@@H](C)O)C(C)C [KP1] |  |  |  |  |  |  |  |  |  |  | 408 M⁻¹ s⁻¹ | 4.92 mmol/L and 5.73 mmol/L and 6.63 mmol/L and 4.9 mmol/L and 3.76 mmol/L and 4.04 mmol/L | 2.71 mmol/L and 2.53 mmol/L and 2.54 mmol/L and 2.38 mmol/L and 2.93 mmol/L and 2.46 mmol/L | did not affect blood phosphorus and calcium level compared to the UIRI group
